Reference: ChEMBL document CHEMBL1130467, “Synthesis and antitumor activity of novel cyclopropapyrroloindole(CPI) derivatives bearing methoxycarbonyl and trifluoromethyl groups” (Bioorg Med Chem Lett, 1997)
Values after ≈ are worked out from the molar mass of the structure shown.

Assays:
[1] = test system: P388; test: Concentration required to inhibit p388 murine leukemia cells by 50%; assay type: functional, cell-based; settings: Mus musculus
[2] = test system: P388; test: Percent increase in life span of p388 murine leukemia cells (inoculated i.p. on day 0) as compared to that of untreated group at 0.125 mg/kg i.p. compound dose on day 1; assay type: functional; settings: Mus musculus, P388, ip, route intraperitoneal
[3] = Percent tumor growth (TGI) inhibition against S180 murine Sarcoma cells( inoculated s.c. into male ICR mice on day 0), as compared to that of untreated group at 0.5 mg/kg i.v. compound dose on day 1; assay type: functional; settings: Mus musculus, CCRF S-180, route intravenous, read-out: TGI
[4] = test system: P388; test: Percent increase in life span of p388 murine leukemia cells (inoculated i.p. on day 0) as compared to that of untreated group at 0.25 mg/kg i.p. compound dose on day 1; cured mice= 2/2; assay type: functional; settings: Mus musculus, P388, ip, route intraperitoneal
[5] = Percent tumor growth (TGI) inhibition against S180 murine Sarcoma cells( inoculated s.c. into male ICR mice on day 0), as compared to that of untreated group at 0.25 mg/kg i.v. compound dose on day 1; assay type: functional; settings: Mus musculus, CCRF S-180, route intravenous, read-out: TGI
[6] = test system: Colon 26; test: Antitumor activity against colon 26 murine adenocarcinoma cells expressed as percent TGI (tumor growth inhibition) at 0.250 mg/kg i.v. compound dose; assay type: functional; settings: Mus musculus, route intravenous, read-out: TGI
[7] = test system: Colon 26; test: Antitumor activity against colon 26 murine adenocarcinoma cells expressed as percent TGI (tumor growth inhibition) at 0.500 mg/kg i.v. compound dose; assay type: functional; settings: Mus musculus, route intravenous, read-out: TGI
[8] = test system: Colon 26; test: Antitumor activity against colon 26 murine adenocarcinoma cells expressed as percent TGI (tumor growth inhibition) at 0.707 mg/kg i.v. compound dose; assay type: functional; settings: Mus musculus, route intravenous, read-out: TGI
[9] = test system: Colon 26; test: Antitumor activity against colon 26 murine adenocarcinoma cells expressed as percent TGI 50 (tumor growth inhibition) at 0.707 mg/kg i.v. compound dose; assay type: functional, Mus musculus; settings: route intravenous
[10] = test system: Colon 26; test: Antitumor activity against colon 26 murine adenocarcinoma cells expressed as % body weight change at 0.125 mg/kg compound dose from day 7 to day 12; assay type: functional, Mus musculus
[11] = test system: Colon 26; test: Antitumor activity against colon 26 murine adenocarcinoma cells expressed as % body weight change at 0.250 mg/kg compound dose from day 7 to day 12; assay type: functional, Mus musculus; settings: dose 0.25 mg/kg
[12] = test system: Colon 26; test: Antitumor activity against colon 26 murine adenocarcinoma cells expressed as % body weight change at 0.500 mg/kg compound dose from day 7 to day 12; assay type: functional, Mus musculus; settings: dose 0.5 mg/kg
[13] = test system: Colon 26; test: Antitumor activity against colon 26 murine adenocarcinoma cells expressed as % body weight change at 0.707 mg/kg compound dose from day 7 to day 12; assay type: functional, Mus musculus
[14] = test system: Colon 26; test: Antitumor activity against colon 26 murine adenocarcinoma cells expressed as percent TGI (tumor growth inhibition) at 0.125 mg/kg i.v. compound dose; assay type: functional; settings: Mus musculus, route intravenous, read-out: TGI
[15] = test system: Colon 26; test: Antitumor activity against colon 26 murine adenocarcinoma cells expressed as maximum dose within 10% body weight loss at 0.707 mg/kg i.v. compound dose; assay type: functional, Mus musculus; settings: route intravenous
[16] = test system: HeLa; test: Concentration required for 50% inhibition of human uterine Cervix Carcinoma cells (HeLaS3); assay type: functional, cell-based
[17] = test system: Colon 26; test: Antitumor activity against colon 26 murine adenocarcinoma cells expressed as percent TGI 50 (tumor growth inhibition) at 0.177 mg/kg i.v. compound dose; assay type: functional, Mus musculus; settings: route intravenous
[18] = test system: Colon 26; test: Antitumor activity against colon 26 murine adenocarcinoma cells expressed as % body weight change at 0.0313 mg/kg compound dose from day 7 to day 12; assay type: functional, Mus musculus
[19] = test system: Colon 26; test: Antitumor activity against colon 26 murine adenocarcinoma cells expressed as % body weight change at 0.0625 mg/kg compound dose from day 7 to day 12; assay type: functional, Mus musculus
[20] = test system: Colon 26; test: Antitumor activity against colon 26 murine adenocarcinoma cells expressed as % body weight change at 0.177 mg/kg i.v. compound dose from day 7 to day 12; assay type: functional, Mus musculus; settings: route intravenous
[21] = test system: Colon 26; test: Antitumor activity against colon 26 murine adenocarcinoma cells expressed as percent TGI (tumor growth inhibition) at 0.0313 mg/kg i.v. compound dose; assay type: functional; settings: Mus musculus, route intravenous, read-out: TGI
[22] = test system: Colon 26; test: Antitumor activity against colon 26 murine adenocarcinoma cells expressed as percent TGI (tumor growth inhibition) at 0.0625 mg/kg i.v. compound dose; assay type: functional; settings: Mus musculus, route intravenous, read-out: TGI
[23] = test system: Colon 26; test: Antitumor activity against colon 26 murine adenocarcinoma cells expressed as percent TGI (tumor growth inhibition) at 0.177 mg/kg i.v. compound dose; assay type: functional; settings: Mus musculus, route intravenous, read-out: TGI
[24] = test system: Colon 26; test: Antitumor activity against colon 26 murine adenocarcinoma cells expressed as maximum dose within 10% body weight loss at 0.177 mg/kg i.v. compound dose; assay type: functional, Mus musculus; settings: route intravenous
[25] = test system: P388; test: Percent increase in life span of p388 murine leukemia cells (inoculated i.p. on day 0) as compared to that of untreated group at 0.25 mg/kg i.p. compound dose on day 1; cured mice =2/2; assay type: functional; settings: Mus musculus, P388, ip, route intraperitoneal
[26] = test system: Colon 26; test: Antitumor activity against colon 26 murine adenocarcinoma cells expressed as percent TGI 50 (tumor growth inhibition) at 0.500 mg/kg i.v. compound dose; assay type: functional, Mus musculus; settings: dose 0.5 mg/kg; route intravenous
[27] = test system: Colon 26; test: Antitumor activity against colon 26 murine adenocarcinoma cells expressed as maximum dose within 10% body weight loss at 0.500 mg/kg i.v. compound dose; assay type: functional, Mus musculus; settings: dose 0.5 mg/kg; route intravenous

Row | Structure (SMILES) | IC50 [1] [ng/mL] | ILS at 0.125 mg/kg [2] [%] | inhibition in vivo at 0.5 mg/kg [3] [%] | inhibition in vivo at 0.25 mg/kg [5] [%] | Change in body weight [10] [%] | inhibition in vivo at 0.125 mg/kg [14] [%] | IC50 [16] [ng/mL] | further results
1 | COC(=O)c1[nH]c2c(c1C(=O)OC)C13CC1CN(C(=O)c1cc4cc(NC(=O)c5cc6ccccc6[nH]5)ccc4[nH]1)C3=CC2=O (racemic) | 0.31 (≈ 0.514 nM) | 102 | 44 |  |  |  |  | 
2 | COC(=O)c1c(C(F)(F)F)[nH]c2c1C13CC1CN(C(=O)c1cc4cc(OC)c(OC)c(OC)c4[nH]1)C3=CC2=O (racemic) | 0.24 (≈ 0.44 nM) | 94 | 92 |  |  |  |  | 
3 | COC(=O)c1c(C(F)(F)F)[nH]c2c1C13CC1CN(C(=O)c1cc4cc(NC(=O)c5cc6ccccc6[nH]5)ccc4[nH]1)C3=CC2=O (racemic) | 0.86 (≈ 1.4 nM) |  |  | 84 |  |  |  | ILS at 0.25 mg/kg [4]: 2%
4 | COC(=O)c1c(C)[nH]c2c1[C@@]13C[C@@H]1CN(C(=O)c1cc4cc(OC)c(OC)c(OC)c4[nH]1)C3=CC2=O (racemic) | 0.34 (≈ 0.692 nM) | 80 | 81 |  |  |  |  | 
5 | COC(=O)c1c(C(F)(F)F)[nH]c2c1C13CC1CN(C(=O)c1cc4cc(OC)ccc4[nH]1)C3=CC2=O (racemic) | 0.23 (≈ 0.474 nM) | 69 |  | 54 |  |  |  | 
6 | COC(=O)c1c(C)[nH]c2c(OC(=O)N3CCN(C)CC3)cc3c(c12)[C@H](CBr)CN3C(=O)c1cc2cc(OC)c(OC)c(OC)c2[nH]1 [PIBROZELESIN] |  |  |  |  | 1 | 26 | 18.1 (≈ 25.9 nM) | inhibition in vivo at 0.25 mg/kg [6]: 62%; inhibition in vivo at 0.5 mg/kg [7]: 85%; inhibition in vivo at 0.707 mg/kg [8]: 90%; TGI50 [9]: 0.209 mg/kg; Change in body weight [11]: -2%; Change in body weight [12]: -1%; Change in body weight [13]: -9%; MTD/ TGI50 [15]: 3.4
7 | COC(=O)c1c(C(F)(F)F)[nH]c2c1C13CC1CN(C(=O)c1cc4cc(NC(=O)c5cc6ccccc6o5)ccc4[nH]1)C3=CC2=O (racemic) | 0.53 (≈ 0.862 nM) |  |  | 83 | -4 | 87 | 0.365 (≈ 0.594 nM) | TGI50 [17]: 0.041; Change in body weight [18]: 0%; Change in body weight [19]: -3%; Change in body weight [20]: -3%; inhibition in vivo at 0.0313 mg/kg [21]: 39%; inhibition in vivo at 0.0625 mg/kg [22]: 68%; inhibition in vivo at 0.177 mg/kg [23]: 85%; MTD/ TGI50 [24]: 4.3; ILS at 0.25 mg/kg [25]: 2%
8 | COC(=O)c1[nH]c2c(c1C(=O)OC)C13CC1CN(C(=O)c1cc4cc(NC(=O)c5cc6ccccc6o5)ccc4[nH]1)C3=CC2=O (racemic) | 0.66 (≈ 1.09 nM) | 79 | 26 |  |  |  |  | 
9 | COC(=O)c1c(C(F)(F)F)[nH]c2c(OC(=O)N3CCN(C)CC3)cc3c(c12)[C@H](CBr)CN3C(=O)c1cc2cc(OC)c(OC)c(OC)c2[nH]1 |  |  |  |  | 1 | 76 | 18.8 (≈ 25 nM) | inhibition in vivo at 0.25 mg/kg [6]: 90%; inhibition in vivo at 0.5 mg/kg [7]: 93%; TGI50 [26]: 0.0429; Change in body weight [19]: 2%; Change in body weight [11]: 5%; Change in body weight [12]: 8%; inhibition in vivo at 0.0625 mg/kg [22]: 58%; MTD/ TGI50 [27]: 11.7
